test system: HeLa; test: Anti-HIV activity (at 50 uM) against human HeLa cells through a HeLa-Tet-ON assay; U= specific; type: functional, cell-based

With `CC(C)=CCc1c(O)c(C(=O)C(C)C)c(O)c2c(-c3ccccc3)cc(=O)oc12` [MESUOL] the inhibition was “Specific”.

test system: MT2; test: Toxicity of compound against human MT-2 cell line at the concentration of 50 uM; type: functional

First: CC(C)CC(=O)c1c2c(c3oc(=O)cc(-c4ccccc4)c3c1O)C[C@@H](C(C)(C)O)O2 [CYCLOMAMMEISIN]
Second: CC(C)C(=O)c1c2c(c3oc(=O)cc(-c4ccccc4)c3c1O)C[C@@H](C(C)(C)O)O2 [MESUOL CYCLO F]
The Cell death of the first is lower: 34.1% for the first, 79.5% for the second.

First: CC(C)=CCc1c(O)cc(O)c2c(-c3ccccc3)cc(=O)oc12
Second: CC(C)CC(=O)c1c(O)cc(O)c2c(-c3ccccc3)cc(=O)oc12 [ISODISPAR B]
The Cell death of the first is higher: 34.4% for the first, 17.2% for the second.

Compared with `CC(C)=CCc1c(O)c(C(=O)C(C)C)c2oc(=O)cc(-c3ccccc3)c2c1O` [ISOMESUOL], `CC(C)=CCc1c(O)c(C(=O)C(C)C)c(O)c2c(-c3ccccc3)cc(=O)oc12` [MESUOL] is higher in Cell death: 11.5% for the first, 22.5% for the second.

First: COc1c(C(=O)CC(C)C)c(O)c(CC=C(C)C)c2oc(=O)cc(-c3ccccc3)c12
Second: CC(C)=CCc1c(O)c(C(=O)CC(C)C)c(O)c2c(-c3ccccc3)cc(=O)oc12 [MAMMEISIN]
The Cell death of the first is lower: 4.8% for the first, 16.6% for the second.

First: CC(C)CC(=O)c1c2c(c3oc(=O)cc(-c4ccccc4)c3c1O)C=CC(C)(C)O2 [MAMMEIGIN]
Second: CC(C)C(=O)c1c2c(c3oc(=O)cc(-c4ccccc4)c3c1O)C=CC(C)(C)O2 [MESUAGIN]
The Cell death of the first is higher: 4.7% for the first, 4.5% for the second.

Compared with `CCC(C)C(=O)c1c(O)c(CC=C(C)C)c2oc(=O)cc(-c3ccccc3)c2c1O` (stereo not drawn), `CC(C)=CCc1c(O)c(C(O)CC(C)C)c(O)c2c(-c3ccccc3)cc(=O)oc12` (stereo not drawn) is lower in Cell death: 28.8% for the first, 8% for the second.

Going from `CC(C)=C(O)Cc1c(O)c(C(=O)CC(C)C)c(O)c2c(-c3ccccc3)cc(=O)oc12` to `CC(=O)Oc1c(C(=O)CC(C)C)c(OC(C)=O)c2c(-c3ccccc3)cc(=O)oc2c1CC=C(C)C` [MAMMEISIN DIACETATE], the Cell death falls from 18.5% to 15.7%.

With `CC1CN(C2CC(N=[N+]=[N-])[C@@H](CO)C2)C(=O)NC1=O` (stereo partly drawn) the Cell death was >100%.

test system: HeLa; test: Anti-HIV activity (at 25 uM) against human HeLa-Tat-Luc cells transfected with HIV-1 LTR activated by Tat protein; type: functional

Going from `CC(C)=CCc1c(O)c(C(=O)C(C)C)c2oc(=O)cc(-c3ccccc3)c2c1O` [ISOMESUOL] to `CC(C)=CCc1c(O)c(C(=O)C(C)C)c(O)c2c(-c3ccccc3)cc(=O)oc12` [MESUOL], the inhibition at 25 µM falls from 36.7% to 11.5%.

Compared with `CC(C)CC(=O)c1c2c(c3oc(=O)cc(-c4ccccc4)c3c1O)C=CC(C)(C)O2` [MAMMEIGIN], `CC(C)C(=O)c1c2c(c3oc(=O)cc(-c4ccccc4)c3c1O)C=CC(C)(C)O2` [MESUAGIN] is lower in inhibition at 25 µM: 2% for the first, 0% for the second.

First: CC(C)CC(=O)c1c(O)cc(O)c2c(-c3ccccc3)cc(=O)oc12 [ISODISPAR B]
Second: CC(C)=C(O)Cc1c(O)c(C(=O)CC(C)C)c(O)c2c(-c3ccccc3)cc(=O)oc12
The inhibition at 25 µM of the first is lower: 42% for the first, 43.6% for the second.

target: Human immunodeficiency virus type 1 reverse transcriptase (Human immunodeficiency virus 1, UniProt Q72547); test: Inhibitory concentration against recombinant human immunodeficiency virus 1 reverse transcriptase

Going from `CC(C)=CCc1c(O)cc(O)c2c(-c3ccccc3)cc(=O)oc12` to `CC(C)CC(=O)c1c(O)cc(O)c2c(-c3ccccc3)cc(=O)oc12` [ISODISPAR B], the IC50 falls from 11.2 µM to 6.9 µM (1.6-fold).

First: CC(C)=CCc1c(O)c(C(=O)C(C)C)c2oc(=O)cc(-c3ccccc3)c2c1O [ISOMESUOL]
Second: CC(C)=CCc1c(O)c(C(=O)C(C)C)c(O)c2c(-c3ccccc3)cc(=O)oc12 [MESUOL]
The IC50 of the first is 13-fold higher: 31.9 µM for the first, 2.5 µM for the second.

First: COc1c(C(=O)CC(C)C)c(O)c(CC=C(C)C)c2oc(=O)cc(-c3ccccc3)c12
Second: CC(C)=C(O)Cc1c(O)c(C(=O)CC(C)C)c(O)c2c(-c3ccccc3)cc(=O)oc12
The IC50 of the first is 44-fold higher: 22.2 µM for the first, 0.5 µM for the second. The second is the more potent here.

Compared with `CC(C)CC(=O)c1c2c(c3oc(=O)cc(-c4ccccc4)c3c1O)C=CC(C)(C)O2` [MAMMEIGIN], `CC(C)C(=O)c1c2c(c3oc(=O)cc(-c4ccccc4)c3c1O)C=CC(C)(C)O2` [MESUAGIN] is 3.9-fold lower in IC50: 124 µM for the first, 32.1 µM for the second. The second is the more potent here.

`CC1CN(C2CC(N=[N+]=[N-])[C@@H](CO)C2)C(=O)NC1=O` (stereo partly drawn) gave an IC50 of 0.01 µM.

test system: HeLa; test: Anti-HIV activity (at 50 uM) against human HeLa cells through a HeLa-Tet-ON assay; S= specific; type: functional, cell-based

With `CC(C)=CCc1c(O)c(C(=O)C(C)C)c2oc(=O)cc(-c3ccccc3)c2c1O` [ISOMESUOL] the inhibition was “Specific”.
With `CC(C)CC(=O)c1c(O)cc(O)c2c(-c3ccccc3)cc(=O)oc12` [ISODISPAR B] the inhibition was “Specific”.
For `CC(C)=C(O)Cc1c(O)c(C(=O)CC(C)C)c(O)c2c(-c3ccccc3)cc(=O)oc12`, the inhibition was “Specific”.

test system: not listed separately; test: Anti-HIV activity (at 25 uM) against Jurkat-derived 5.1 cell line stably transfected with HIV-LTR activated by TNF alpha; type: functional

Compared with `CC(C)CC(=O)c1c2c(c3oc(=O)cc(-c4ccccc4)c3c1O)C[C@@H](C(C)(C)O)O2` [CYCLOMAMMEISIN], `CC(C)CC(=O)c1c2c(c3oc(=O)cc(-c4ccccc4)c3c1O)C=CC(C)(C)O2` [MAMMEIGIN] is lower in inhibition at 25 µM: 66.9% for the first, 5.9% for the second.

First: CC(C)=CCc1c(O)cc(O)c2c(-c3ccccc3)cc(=O)oc12
Second: CC(C)CC(=O)c1c(O)cc(O)c2c(-c3ccccc3)cc(=O)oc12 [ISODISPAR B]
The inhibition at 25 µM of the first is lower: 33.4% for the first, 81% for the second.

Compared with `CC(C)=CCc1c(O)c(C(=O)C(C)C)c2oc(=O)cc(-c3ccccc3)c2c1O` [ISOMESUOL], `CC(C)=CCc1c(O)c(C(=O)C(C)C)c(O)c2c(-c3ccccc3)cc(=O)oc12` [MESUOL] is higher in inhibition at 25 µM: 67% for the first, 67.1% for the second.

Going from `CC(C)=C(O)Cc1c(O)c(C(=O)CC(C)C)c(O)c2c(-c3ccccc3)cc(=O)oc12` to `CC(C)C(=O)c1c2c(c3oc(=O)cc(-c4ccccc4)c3c1O)C=CC(C)(C)O2` [MESUAGIN], the inhibition at 25 µM falls from 55.4% to 10.8%.

Work on `CC(C)=CCc1c(O)c(C(=O)C(C)C)c(O)c2c(-c3ccccc3)cc(=O)oc12` [MESUOL] yielded an Inhibition of 71%.

test system: not listed separately; test: Anti-HIV activity (at 50 uM) against Jurkat-derived 5.1 cell line stably transfected with HIV-LTR activated by TNF alpha; type: functional

Going from `CC(C)CC(=O)c1c2c(c3oc(=O)cc(-c4ccccc4)c3c1O)C[C@@H](C(C)(C)O)O2` [CYCLOMAMMEISIN] to `CC(C)C(=O)c1c2c(c3oc(=O)cc(-c4ccccc4)c3c1O)C[C@@H](C(C)(C)O)O2` [MESUOL CYCLO F], the inhibition at 50 µM falls from 86.3% to 59.4%.

First: CC(C)=CCc1c(O)cc(O)c2c(-c3ccccc3)cc(=O)oc12
Second: CC(C)CC(=O)c1c(O)cc(O)c2c(-c3ccccc3)cc(=O)oc12 [ISODISPAR B]
The inhibition at 50 µM of the first is lower: 84.5% for the first, 85.6% for the second.

First: CC(C)=CCc1c(O)c(C(=O)C(C)C)c2oc(=O)cc(-c3ccccc3)c2c1O [ISOMESUOL]
Second: CC(C)=CCc1c(O)c(C(=O)C(C)C)c(O)c2c(-c3ccccc3)cc(=O)oc12 [MESUOL]
The inhibition at 50 µM of the first is lower: 67.1% for the first, 77.9% for the second.

Going from `COc1c(C(=O)CC(C)C)c(O)c(CC=C(C)C)c2oc(=O)cc(-c3ccccc3)c12` to `CC(C)=CCc1c(O)c(C(=O)CC(C)C)c(O)c2c(-c3ccccc3)cc(=O)oc12` [MAMMEISIN], the inhibition at 50 µM rises from 43.6% to 58.8%.

First: CC(C)CC(=O)c1c2c(c3oc(=O)cc(-c4ccccc4)c3c1O)C=CC(C)(C)O2 [MAMMEIGIN]
Second: CC(C)C(=O)c1c2c(c3oc(=O)cc(-c4ccccc4)c3c1O)C=CC(C)(C)O2 [MESUAGIN]
The inhibition at 50 µM of the first is lower: 15.7% for the first, 20.2% for the second.

Going from `CCC(C)C(=O)c1c(O)c(CC=C(C)C)c2oc(=O)cc(-c3ccccc3)c2c1O` (stereo not drawn) to `CC(C)=CCc1c(O)c(C(O)CC(C)C)c(O)c2c(-c3ccccc3)cc(=O)oc12` (stereo not drawn), the inhibition at 50 µM falls from 85.2% to 60%.

Going from `CC(C)=C(O)Cc1c(O)c(C(=O)CC(C)C)c(O)c2c(-c3ccccc3)cc(=O)oc12` to `CC(=O)Oc1c(C(=O)CC(C)C)c(OC(C)=O)c2c(-c3ccccc3)cc(=O)oc2c1CC=C(C)C` [MAMMEISIN DIACETATE], the inhibition at 50 µM rises from 53.1% to 81.1%.

test system: HeLa; test: Anti-HIV activity (at 50 uM) against human HeLa-Tat-Luc cells transfected with HIV-1 LTR activated by Tat protein; type: functional

Compared with `CC(C)CC(=O)c1c2c(c3oc(=O)cc(-c4ccccc4)c3c1O)C[C@@H](C(C)(C)O)O2` [CYCLOMAMMEISIN], `CC(C)C(=O)c1c2c(c3oc(=O)cc(-c4ccccc4)c3c1O)C[C@@H](C(C)(C)O)O2` [MESUOL CYCLO F] is higher in inhibition at 50 µM: 22% for the first, 59.5% for the second.

Compared with `CC(C)=CCc1c(O)cc(O)c2c(-c3ccccc3)cc(=O)oc12`, `CC(C)CC(=O)c1c(O)cc(O)c2c(-c3ccccc3)cc(=O)oc12` [ISODISPAR B] is higher in inhibition at 50 µM: 15.4% for the first, 69.4% for the second.

Going from `CC(C)=CCc1c(O)c(C(=O)C(C)C)c2oc(=O)cc(-c3ccccc3)c2c1O` [ISOMESUOL] to `CC(C)=CCc1c(O)c(C(=O)C(C)C)c(O)c2c(-c3ccccc3)cc(=O)oc12` [MESUOL], the inhibition at 50 µM rises from 34.3% to 71.3%.

Going from `COc1c(C(=O)CC(C)C)c(O)c(CC=C(C)C)c2oc(=O)cc(-c3ccccc3)c12` to `CC(C)=CCc1c(O)c(C(=O)CC(C)C)c(O)c2c(-c3ccccc3)cc(=O)oc12` [MAMMEISIN], the inhibition at 50 µM rises from 13.5% to 53.1%.

Going from `CC(C)CC(=O)c1c2c(c3oc(=O)cc(-c4ccccc4)c3c1O)C=CC(C)(C)O2` [MAMMEIGIN] to `CC(C)C(=O)c1c2c(c3oc(=O)cc(-c4ccccc4)c3c1O)C=CC(C)(C)O2` [MESUAGIN], the inhibition at 50 µM falls from 3% to 0%.

First: CCC(C)C(=O)c1c(O)c(CC=C(C)C)c2oc(=O)cc(-c3ccccc3)c2c1O (stereo not drawn)
Second: CC(C)=CCc1c(O)c(C(O)CC(C)C)c(O)c2c(-c3ccccc3)cc(=O)oc12 (stereo not drawn)
The inhibition at 50 µM of the first is higher: 86.7% for the first, 47.6% for the second.

First: CC(C)=C(O)Cc1c(O)c(C(=O)CC(C)C)c(O)c2c(-c3ccccc3)cc(=O)oc12
Second: CC(=O)Oc1c(C(=O)CC(C)C)c(OC(C)=O)c2c(-c3ccccc3)cc(=O)oc2c1CC=C(C)C [MAMMEISIN DIACETATE]
The inhibition at 50 µM of the first is higher: 70.4% for the first, 50.4% for the second.

test system: HeLa; test: Anti-HIV activity (at 50 uM) against human HeLa cells through a HeLa-Tet-ON assay; U= unspecific; type: functional, cell-based

With `CC(C)CC(=O)c1c2c(c3oc(=O)cc(-c4ccccc4)c3c1O)C[C@@H](C(C)(C)O)O2` [CYCLOMAMMEISIN] the inhibition was “Unspecific”.
In the case of `CCC(C)C(=O)c1c(O)c(CC=C(C)C)c2oc(=O)cc(-c3ccccc3)c2c1O` (stereo not drawn), the inhibition is reported as “Unspecific”.
For `CC(C)=CCc1c(O)c(C(=O)CC(C)C)c(O)c2c(-c3ccccc3)cc(=O)oc12` [MAMMEISIN], the inhibition was “Unspecific”.
In the case of `CC(C)C(=O)c1c2c(c3oc(=O)cc(-c4ccccc4)c3c1O)C[C@@H](C(C)(C)O)O2` [MESUOL CYCLO F], the inhibition is reported as “Unspecific”.
In the case of `CC(C)=CCc1c(O)c(C(=O)C(C)C)c(O)c2c(-c3ccccc3)cc(=O)oc12` [MESUOL], the inhibition is reported as “Unspecific”.
For `CC(C)=CCc1c(O)c(C(O)CC(C)C)c(O)c2c(-c3ccccc3)cc(=O)oc12` (stereo not drawn), the inhibition was “Unspecific”.
For `CC(=O)Oc1c(C(=O)CC(C)C)c(OC(C)=O)c2c(-c3ccccc3)cc(=O)oc2c1CC=C(C)C` [MAMMEISIN DIACETATE], the inhibition was “Unspecific”.
